Reference: US10898583B2, “Harnessing quantum dots to study, visualize, and promote immune tolerance” (University of Maryland, College Park, priority 2016, dated 2021)
Where no end group is shown, it is not given here.

Tests used:
[1] = test system: transgenic 2D2 CD4+ T cells; test: 2D2 T cell proliferation (proliferation dye dilution) in DC co-culture; assay type: cell-based, mouse; conditions: DCs treated with CpG; 17 or 52 peptides per QD; 72 hours
Protocol: Stained cells were analyzed by flow cytometry.

[2] = test system: experimental autoimmune encephalomyelitis (EAE); test: EAE induction, MOG-QD treatment and monitoring; assay type: in vivo, C57BL/6 mice; conditions: single s.c. injection day 2, through day 21
Protocol: C57BL/6 mice (female, 10-12 weeks) were induced with EAE following a defined protocol from Hooke Labs. Briefly, mice were injected s.c. with an emulsion of MOG and complete Freund's adjuvant (CFA) at the upper and lower back on day 0. Pertussis toxin was also administered intraperitoneally 2 and 24 hours after MOG/CFA injection. Beginning at day 7, mice were weighed to detect changes from day 0 body weight (a symptom of disease) and scored for disease severity with respect to paralysis. A standard clinical scoring rubric was used: 0—no symptoms, 1—limp tail, 2—weakness of hind legs, 3—hind limb paralysis, 4—hind limb paralysis and partial front limb paralysis, 5—moribund.^[6, 7, 15]
Mice induced with EAE were randomly divided into groups of 8-10 mice each. A control group was left untreated in each experiment. In one experiment, additional groups were treated by s.c. injection at the tailbase with 0.2 nanomoles QDs, 70 μg MOG, 70 μg CTRL peptide on 0.2 nanomoles QDs (100:1), or 70 μg MOG peptide on 0.2 nanomoles QDs (100:1). Similar experiments contained two treatment groups: 14.3 μg MOG on 0.4 nanomoles QDs (17:1) or 73 μg MOG on 0.2 nanomoles QDs (52:1). The final experiment design contained three treatment groups: 70 μg MOG on 0.5 nanomoles QDs (25:1), 70 μg MOG on 0.4 nanomoles QDs (52:1), or 70 μg MOG on 0.3 nanomoles QDs (65:1).

HHHHHSAAAAAGISQAVHAAHAEINEAGR (not fully specified) [free CTRL peptide]
2D2 T cell proliferation [1]: neither CTRL-QDs nor free CTRL peptide caused proliferation

HHHHHSAAAAAGMEVGWYRSPFSRVVHLYRNGK [free MOG]
2D2 T cell proliferation [1]: equivalent | disease progression (clinical score) ([2]; 100:1, 70 μg peptide on 0.2 nanomoles QDs or component controls): none of the groups except MOG-QDs caused significant differences in clinical scores | disease incidence ([2]; 100:1 or component controls): no differences in disease incidence
